Test results: ChEMBL document CHEMBL1145342, “Structure-based drug design and structural biology study of novel nonpeptide inhibitors of severe acute respiratory syndrome coronavirus main protease” (J Med Chem, 2006)

These compounds were tested against Replicase polyprotein 1a (Severe acute respiratory syndrome-related coronavirus, UniProt P0C6U8) (assay: Inhibition of SARS coronavirus main protease).

Compound	IC50 [µM]
O=[N+]([O-])c1cc(C(F)(F)F)ccc1S(=O)(=O)c1ccc(Cl)cc1	12
Cc1noc(NC(=O)c2ccc(-c3cc(C(F)(F)F)nn3C)s2)c1[N+](=O)[O-]	5
O=C(O)c1ccc(S(=O)(=O)c2cc(Br)c(O)c(Br)c2)cc1	16
O=S(=O)(Cc1[nH]c(-c2ccc(Cl)s2)c[s+]1)c1cccs1	18
CC(=O)c1ccccc1S(=O)(=O)c1ccccc1C(=O)O	16
CCOC(=O)/C(C#N)=C/Nc1ccc(S(=O)(=O)c2ccc(/N=C/C(C#N)=C(\O)OCC)cc2)cc1	16
O=[N+]([O-])c1ccc(S(=O)(=O)c2ccc(Cl)cc2)[n+]([O-])c1	15
O=C(Cc1nccs1)c1nccs1	40
O=[N+]([O-])c1ccc(S(=O)(=O)c2ccc([N+](=O)[O-])cc2)cc1	25
O=C(Oc1ccc(S(=O)(=O)c2ccc(OC(=O)C(Cl)=C(Cl)Cl)cc2)cc1)C(Cl)=C(Cl)Cl	0.9
Nc1ncc(S(=O)(=O)c2ccc(Cl)cc2)c(N)n1	6
CC1(C)CC(=O)c2c(NCc3ccco3)sc(C#N)c2C1	16
CCOC(=O)C(=CNc1ccc(S(=O)(=O)c2ccc(/N=C/C(C(=O)OCC)=C(\O)OCC)cc2)cc1)C(=O)OCC	32
Cc1nn(C)c(NCc2ccc(-c3cccs3)s2)c1[N+](=O)[O-]	20
Cc1oc(C(C)(C)C)cc1-c1cc(NS(=O)(=O)c2cccs2)[nH]n1	10
CSc1[nH]nc(NC(=O)c2cccs2)c1S(=O)(=O)c1ccccc1	15

What follows are compounds tested against Replicase polyprotein 1a (Severe acute respiratory syndrome-related coronavirus) (UniProt P0C6U8) (assay: Inhibition of SARS coronavirus main protease at 10 uM).

Compound	inhibition [%]
Clc1ccc(-c2noc(CSC3=NCCN3)n2)cc1	61
COc1ccc([N+](=O)[O-])c(S(=O)(=O)c2ccccc2)n1	58
